Earlier results as cited in patent US20120070506A1, “Animal Treatment” (BOMAC RESEARCH LIMITED, priority 2009, published 2012).

System: animals
Conditions: veterinary treatment

Compound: CC(C(=O)O)c1ccc2c(c1)[nH]c1ccc(Cl)cc12 (stereo not drawn) [carprofen, 6-chloro-alpha-methyl-9H-carbozole-2-acetic acid]
- known adverse effect: hepatotoxicity (acute hepatic necrosis) or other liver damage
